# Assay results from publication PMC7979765, “trans-Translation inhibitors bind to a novel site on the ribosome and clear Neisseria gonorrhoeae in vivo” (Nature Communications, 2021).
# Where “and” joins values, the source holds several entries; their conditions need not be identical. Equal entries are not always repeated. Where two headings read alike, the source gives them in different places.
# Assays:
# [1] = Mitochondrial toxicity assay, glucose vs galactose; format: cell-based; conditions: human, HepG2; for viability at 24 h, 100 µM: Conc. (μM) 1.00E-04; for viability at 24 h, 3 µM: Conc. (μM) 3.00E-06
# Description: (§1) Mitochondrial toxicity assay — HepG2 cells (ATCC) were seeded and cultured in media containing either glucose or galactose overnight. Test compounds were added at 8 concentrations ([…] from 100 µM to 30 nM) and incubated with the cells for 24 h. Cell viability was measured by the alamarBlue method. The data in Supplementary Table 7 are inconsistent with MBX-4132 disrupting mitochondrial metabolic processes. Assays were performed at Eurofins Cerep Panlabs.
# HepG2 cells = assay: Mitochondrial toxicity assay, glucose vs galactose; format: cell-based; conditions: for % viability: HepG2, replicates
# Description: as §1
# [2] = target: T1, Serotonin (5-hydroxytryptamine) 5-HT1B (Homo sapiens, UniProt P28222); assay: Receptor Profiling 271230; format: binding
# T1 construct: purchased Eurofins Discovery Services (Panlabs safety panel)
# Description: (§2) Several in vitro selectivity assays were performed at Eurofins Discovery Services using established methods and controls that behaved as expected (Supplementary Tables 5 and 6). […] For receptor panel profiling, MBX-4132 was evaluated at 10 μM and activity of >50% (agonist or antagonist; note that negative % inhibition indicates agonism) was scored as active.
# [3] = system: Salmonella typhimurium strains TA98 and TA100; format: cell-based
# Description: The Ames assay was performed at SRI Biosciences, following the standard protocols established there[55]–[57]. In brief, samples were evaluated for their ability to induce genetic damage using the plate incorporation method with Salmonella typhimurium strains TA98 and TA100 with and without a metabolic activation mixture containing 10% Aroclar-1254-induced rat-liver microsomes (S9). MBX-4132 was tested from a 5 mg/mL DMSO stock solution (the solubility limit), which provided plate concentrations up to 500 µg/plate, with serial dilutions accessing doses as low as 5 µg/plate. MBX-4132 precipitated at the two highest dose levels (500 and 100 µg/plate), but at 50 µg/plate, no precipitation was observed. […] Test articles were considered mutagenic when the mean number of revertant colonies increased in a dose-dependent manner. Some cytotoxicity was observed, but sufficient colonies were formed to allow analysis. […] Data for 2-nitrofluorene and sodium azide (positive controls) and DMSO (negative control) were included for reference.
# CYP2C19 = target: T2, CYP2C19 (Homo sapiens, UniProt P33261); assay: Cyp inhibition assay 4874; format: in vitro ADME; conditions: catalog reference 4874, read-out: pIC50 (µM) reported (converted)
# T2 construct: Eurofins Discovery Services (contract assay) 4874
# Description: as §2
# Potassium Channel [KA] = assay: Receptor Profiling 265510; format: binding, rat; conditions: 10 μM
# Description: as §2
# [4] = target: T3, Transporter, Norepinephrine (NET) (Homo sapiens, UniProt P23975); assay: Receptor Profiling 204410; format: binding
# T3 construct: purchased Eurofins Discovery Services 204410
# Description: as §2
# [5] = Serum shift of MIC (+/- 10% fetal bovine serum)
# CYP1A = assay: Cyp inhibition assay 4876; format: in vitro ADME, human; conditions: catalog reference 4876
# Description: as §2
# [6] = Serum protein binding, dog; format: in vitro ADME
# Description: Serum protein binding was determined using an equilibrium dialysis method as described. The amount of compound in each chamber (buffer and serum) was measured using methods for reverse-phase liquid chromatography/mass spectroscopy methods that were customized for each compound.
# [7] = target: T4, Protein Tyrosine Kinase, LCK (Homo sapiens, UniProt P06239); assay: Receptor Profiling 176020; format: biochemical
# T4 construct: purchased Eurofins Discovery Services (Panlabs safety panel)
# Description: as §2
# [8] = HepG2 cells, Galactcose, read-out: Mean % viability
# [9] = HepG2 cells, Galactcose, replicates, read-out: % viability
# [10] = HepG2 cells, Glucose, read-out: Mean % viability
# [11] = HepG2 cells, Glucose, replicates, read-out: % viability
# T3 sequence (P23975 whole entry): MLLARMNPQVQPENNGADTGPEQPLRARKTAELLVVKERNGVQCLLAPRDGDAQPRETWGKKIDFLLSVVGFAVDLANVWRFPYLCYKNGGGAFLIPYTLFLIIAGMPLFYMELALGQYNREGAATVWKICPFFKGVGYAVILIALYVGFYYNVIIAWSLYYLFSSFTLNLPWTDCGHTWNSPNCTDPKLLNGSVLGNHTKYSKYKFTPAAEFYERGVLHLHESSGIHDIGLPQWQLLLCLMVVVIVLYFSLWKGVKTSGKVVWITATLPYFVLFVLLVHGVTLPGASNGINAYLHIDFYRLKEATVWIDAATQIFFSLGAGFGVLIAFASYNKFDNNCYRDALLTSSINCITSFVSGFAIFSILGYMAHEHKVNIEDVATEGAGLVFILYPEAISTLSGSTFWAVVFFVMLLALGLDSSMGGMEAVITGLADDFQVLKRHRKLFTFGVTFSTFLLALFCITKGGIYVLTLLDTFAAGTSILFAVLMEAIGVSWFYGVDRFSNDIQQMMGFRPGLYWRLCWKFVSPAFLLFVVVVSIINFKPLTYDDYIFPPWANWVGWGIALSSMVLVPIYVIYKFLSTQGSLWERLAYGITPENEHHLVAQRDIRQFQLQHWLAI
# T1 sequence (P28222 whole entry): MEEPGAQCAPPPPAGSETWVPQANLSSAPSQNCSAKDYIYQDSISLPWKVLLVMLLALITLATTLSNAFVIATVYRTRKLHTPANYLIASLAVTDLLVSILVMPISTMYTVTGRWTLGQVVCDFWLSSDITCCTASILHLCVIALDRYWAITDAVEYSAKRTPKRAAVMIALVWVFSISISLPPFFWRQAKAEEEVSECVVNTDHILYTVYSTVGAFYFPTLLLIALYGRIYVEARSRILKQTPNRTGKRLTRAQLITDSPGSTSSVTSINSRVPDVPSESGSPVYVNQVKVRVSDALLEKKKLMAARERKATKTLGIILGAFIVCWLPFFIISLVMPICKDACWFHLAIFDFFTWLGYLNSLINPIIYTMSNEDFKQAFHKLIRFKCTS
# T4 sequence (P06239 whole entry): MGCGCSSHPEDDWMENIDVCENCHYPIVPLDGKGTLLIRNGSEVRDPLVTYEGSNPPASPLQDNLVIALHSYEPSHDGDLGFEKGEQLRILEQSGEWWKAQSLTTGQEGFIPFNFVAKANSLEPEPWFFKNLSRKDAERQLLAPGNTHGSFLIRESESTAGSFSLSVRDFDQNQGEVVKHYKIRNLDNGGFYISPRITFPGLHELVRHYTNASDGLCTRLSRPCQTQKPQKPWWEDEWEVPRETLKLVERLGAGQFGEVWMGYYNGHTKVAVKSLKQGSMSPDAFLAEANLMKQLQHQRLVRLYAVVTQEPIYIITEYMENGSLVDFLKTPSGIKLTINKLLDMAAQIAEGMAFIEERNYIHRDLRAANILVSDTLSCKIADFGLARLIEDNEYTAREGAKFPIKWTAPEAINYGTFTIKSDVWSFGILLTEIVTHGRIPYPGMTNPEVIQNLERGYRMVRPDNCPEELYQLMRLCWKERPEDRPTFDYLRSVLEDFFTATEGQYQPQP
# T2 sequence (P33261 whole entry): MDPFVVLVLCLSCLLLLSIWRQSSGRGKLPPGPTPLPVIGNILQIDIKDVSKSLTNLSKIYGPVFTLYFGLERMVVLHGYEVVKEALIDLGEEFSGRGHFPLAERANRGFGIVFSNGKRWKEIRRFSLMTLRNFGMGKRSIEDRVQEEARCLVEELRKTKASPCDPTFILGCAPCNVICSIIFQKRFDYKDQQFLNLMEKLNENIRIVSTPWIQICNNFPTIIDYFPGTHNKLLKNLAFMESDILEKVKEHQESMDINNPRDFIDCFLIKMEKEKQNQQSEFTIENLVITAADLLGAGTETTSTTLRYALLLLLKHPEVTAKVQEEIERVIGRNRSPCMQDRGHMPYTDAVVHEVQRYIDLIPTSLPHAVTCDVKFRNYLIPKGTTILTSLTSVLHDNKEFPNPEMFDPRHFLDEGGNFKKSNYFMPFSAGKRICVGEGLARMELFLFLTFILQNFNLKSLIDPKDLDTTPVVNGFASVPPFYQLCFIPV
smiles,measurement,setting,value
O=C(Nc1nnc(-c2ccc(F)cc2)o1)N1CCc2ccccc2C1 [MBX-4132],"viability at 24 h, 1e-05 μM","[1]; Glucose, Conc. (μM) 1.00E-05, replicates",108%
same,"viability at 24 h, 100 µM",[1]; [8],64%
same,"viability at 24 h, 100 µM",[1]; [9],65.3%
same,"viability at 24 h, 10 µM","[1]; HepG2 cells, Galactcose, Conc. (μM) 1.00E-05",95.4%
same,"viability at 24 h, 3 µM",[1]; [8],94.1%
same,"viability at 24 h, 3 µM",[1]; [9],93.9%
same,"viability at 24 h, 30 µM","[1]; HepG2 cells, Galactose, Conc. (μM) 3.00E-05, 24 h",96.8%
same,"viability at 24 h, 100 µM",[1]; [10],81.9%
same,"viability at 24 h, 100 µM",[1]; [11],78.3%
same,"viability at 24 h, 10 µM","[1]; HepG2 cells, Glucose, Conc. (μM) 1.00E-05",108%
same,"viability at 24 h, 3 µM",[1]; [10],110%
same,"viability at 24 h, 3 µM",[1]; [11],116%
same,% viability,"HepG2 cells; Galactcose, Conc. (μM) 1.00E-04",62.7%
same,% viability,"HepG2 cells; Galactcose, Conc. (μM) 3.00E-05",99.1%
same,% viability,"HepG2 cells; Galactcose, Conc. (μM) 3.00E-06",94.2%
same,% viability,"HepG2 cells; Glucose, Conc. (μM) 1.00E-04",85.6%
same,% viability,"HepG2 cells; Glucose, Conc. (μM) 1.00E-05",107.5%
same,% viability,"HepG2 cells; Glucose, Conc. (μM) 3.00E-05",106.5%
same,% viability,"HepG2 cells; Glucose, Conc. (μM) 3.00E-06",103.0%
same,differential toxicity glucose vs galactose (in words),HepG2 cells; HepG2 cells,did not induce differential toxicity
same,inhibition at 10 µM,[2],21%
same,Average Mean Revertants/plate,"[3]; TA98, 1 µg/plate, + S9",23.5 Revertants/plate
same,Average Mean Revertants/plate,"[3]; TA98, 1 µg/plate, no S9",21.5 Revertants/plate
same,Mean Revertants/plate,"[3]; TA98, 1 µg/plate, no S9, replicates",23 Revertants/plate and 20 Revertants/plate
same,Average Mean Revertants/plate,"[3]; TA98, 5 µg/plate, + S9",22 Revertants/plate
same,Average Mean Revertants/plate,"[3]; TA98, 5 µg/plate, no S9",17.0 Revertants/plate
same,Mean Revertants/plate,"[3]; TA98, 5 µg/plate, no S9, replicates",18 Revertants/plate and 16 Revertants/plate
same,Average Mean Revertants/plate,"[3]; TA98, 10 µg/plate, + S9",21 Revertants/plate
same,Average Mean Revertants/plate,"[3]; TA98, 10 µg/plate, no S9",15.0 Revertants/plate
same,Mean Revertants/plate,"[3]; TA98, 10 µg/plate, no S9, replicates",14 Revertants/plate and 16 Revertants/plate
same,Average Mean Revertants/plate,"[3]; TA98, 50 µg/plate, + S9",18.5 Revertants/plate
same,Average Mean Revertants/plate,"[3]; TA98, 50 µg/plate, no S9",20.0 Revertants/plate
same,Mean Revertants/plate,"[3]; TA98, 50 µg/plate, no S9, replicates",18 Revertants/plate and 22 Revertants/plate
same,Average Mean Revertants/plate,"[3]; TA98, 100 µg/plate, + S9",17.5 Revertants/plate
same,Average Mean Revertants/plate,"[3]; TA98, 100 µg/plate, no S9",20.0 Revertants/plate
same,Mean Revertants/plate,"[3]; TA98, 100 µg/plate, no S9, replicates",18 Revertants/plate and 22 Revertants/plate
same,Average Mean Revertants/plate,"[3]; TA98, 500 µg/plate, + S9",20 Revertants/plate
same,Average Mean Revertants/plate,"[3]; TA98, 500 µg/plate, no S9",17.5 Revertants/plate
same,Mean Revertants/plate,"[3]; TA98, 500 µg/plate, no S9, replicates",19 Revertants/plate and 16 Revertants/plate
same,Mean Revertants/plate,"[3]; TA98, + S9, 1 µg/plate",23.5
same,Mean Revertants/plate,"[3]; TA98, + S9, 5 µg/plate",22.0
same,Mean Revertants/plate,"[3]; TA98, + S9, 10 µg/plate",21.0
same,Mean Revertants/plate,"[3]; TA98, + S9, 50 µg/plate",18.5
same,Mean Revertants/plate,"[3]; TA98, + S9, 100 µg/plate",17.5
same,Mean Revertants/plate,"[3]; TA98, + S9, 500 µg/plate",20.0
same,Mean Revertants/plate,"[3]; TA98, without S9, 1 µg/plate",21.5
same,Mean Revertants/plate,"[3]; TA98, without S9, 5 µg/plate",17.0
same,Mean Revertants/plate,"[3]; TA98, without S9, 10 µg/plate",15.0
same,Mean Revertants/plate,"[3]; TA98, without S9, 50 µg/plate",20.0
same,Mean Revertants/plate,"[3]; TA98, without S9, 100 µg/plate",20.0
same,Mean Revertants/plate,"[3]; TA98, without S9, 500 µg/plate",17.5
same,revertant colonies vs DMSO control (in words),"[3]; TA98 and TA100, with and without S9, any concentration tested",no significant deviation
same,Average Mean Revertants/plate,"[3]; TA100, 1 µg/plate, + S9",107.5 Revertants/plate
same,Average Mean Revertants/plate,"[3]; TA100, 1 µg/plate, no S9",112.5 Revertants/plate
same,Mean Revertants/plate,"[3]; TA100, 1 µg/plate, no S9, replicates",108 Revertants/plate and 117 Revertants/plate
same,Average Mean Revertants/plate,"[3]; TA100, 5 µg/plate, + S9",125.5 Revertants/plate
same,Average Mean Revertants/plate,"[3]; TA100, 5 µg/plate, no S9",99.0 Revertants/plate
same,Mean Revertants/plate,"[3]; TA100, 5 µg/plate, no S9, replicates",98 Revertants/plate and 100 Revertants/plate
same,Average Mean Revertants/plate,"[3]; TA100, 10 µg/plate, + S9",102 Revertants/plate
same,Average Mean Revertants/plate,"[3]; TA100, 10 µg/plate, no S9",97.0 Revertants/plate
same,Mean Revertants/plate,"[3]; TA100, 10 µg/plate, no S9, replicates",94 Revertants/plate and 100 Revertants/plate
same,Average Mean Revertants/plate,"[3]; TA100, 50 µg/plate, + S9",71 Revertants/plate
same,Average Mean Revertants/plate,"[3]; TA100, 50 µg/plate, no S9",73.0 Revertants/plate
same,Mean Revertants/plate,"[3]; TA100, 50 µg/plate, no S9, replicates",79 Revertants/plate and 67 Revertants/plate
same,Average Mean Revertants/plate,"[3]; TA100, 100 µg/plate, + S9",43 Revertants/plate
same,Average Mean Revertants/plate,"[3]; TA100, 100 µg/plate, no S9",54.0 Revertants/plate
same,Mean Revertants/plate,"[3]; TA100, 100 µg/plate, no S9, replicates",55 Revertants/plate and 53 Revertants/plate
same,Average Mean Revertants/plate,"[3]; TA100, 500 µg/plate, + S9",19.5 Revertants/plate
same,Average Mean Revertants/plate,"[3]; TA100, 500 µg/plate, no S9",35.5 Revertants/plate
same,Mean Revertants/plate,"[3]; TA100, 500 µg/plate, no S9, replicates",38 Revertants/plate and 33 Revertants/plate
same,Mean Revertants/plate,"[3]; TA100, + S9, 1 µg/plate",107.5
same,Mean Revertants/plate,"[3]; TA100, + S9, 5 µg/plate",125.5
same,Mean Revertants/plate,"[3]; TA100, + S9, 10 µg/plate",102.0
same,Mean Revertants/plate,"[3]; TA100, + S9, 50 µg/plate",71.0
same,Mean Revertants/plate,"[3]; TA100, + S9, 100 µg/plate",43.0
same,Mean Revertants/plate,"[3]; TA100, + S9, 500 µg/plate",19.5
same,Mean Revertants/plate,"[3]; TA100, without S9, 1 µg/plate",112.5
same,Mean Revertants/plate,"[3]; TA100, without S9, 5 µg/plate",99.0
same,Mean Revertants/plate,"[3]; TA100, without S9, 10 µg/plate",97.0
same,Mean Revertants/plate,"[3]; TA100, without S9, 50 µg/plate",73.0
same,Mean Revertants/plate,"[3]; TA100, without S9, 100 µg/plate",54.0
same,Mean Revertants/plate,"[3]; TA100, without S9, 500 µg/plate",35.5
same,IC50,CYP2C19,> 100 µM
same,% inhibition,Potassium Channel [KA],-2%
same,inhibition at 10 µM,[4],6%
same,Serum shift (fold),[5]; Average Value,16 fold
same,serum Shift,[5]; Ratio of MIC +/- 10% fetal bovine serum added,16
same,Serum shift (fold),[5]; Replicate 1/2,16 fold
same,pIC50 (µM) reported,CYP1A,No activity
same,fraction unbound,"[6]; Average Value, Eurofins, read-out: Serum binding (% bound) Dog (converted)",0.048
same,fraction unbound,"[6]; Replicate 1/2, Eurofins, read-out: Serum binding (% bound) Dog (converted)",0.095 and 0.002
same,fraction unbound,"[6]; Reported value, Eurofins, read-out: Serum binding (% bound) Dog (converted)",0.048
same,fraction unbound,[6]; read-out: Serum Binding (% bound) Dog (converted),0.048
same,inhibition at 10 µM,[7],29%
